Laboratory results taken from patent US12521393B2, “Cytotoxicity targeting chimeras for CCR2-expressing cells” (GLAXOSMITHKLINE INTELLECTUAL PROPERTY DEVELOPMENT LIMITED, priority 2021, dated 2026).

Experiments:
[1] = target: anti-cotinine antibody (SEQ ID NO: 11/12, rabbit variable region with human IgG1 Fc DE mutation); test: SPR binding of anti-cotinine antibody to ARM compounds, Biacore T200, 37° C. (Example 202); settings: SPR Biacore T200, 37° C., pH 7.4, antibody SEQ ID NO: 11/12 captured on protein A; Kd in molar
In short: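 Antibody captured on a protein A chip; ARM compounds injected at 100 μL/min (200 s association, 2000 s dissociation), 3-fold 5-point series from 200 nM, at 37 °C in HEPES pH 7.4 buffer with 0.005% P20 and 1% DMSO. Double-referenced sensorgrams fit 1:1 for kon, koff, Kd (koff/kon), residence time (1/koff); pKd averaged across runs.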

[2] = test system: CCR2 expressing cells (CD11b+Ly6c+Hi) in peripheral blood; test: In vivo depletion assay, flow cytometry of peripheral blood (Example 201); design: species or system human CCR2 knock-in mice (C57 background); settings: hCCR2 knock-in mice, IV 0.1 mpk compound + 10 mpk anti-cotinine antibody (SEQ ID NO: 13/14), peripheral blood at 48 hr
In short: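 Mice dosed with compound formulated in saline/DMSO/PBS, with anti-cotinine antibody (rabbit variable region, mouse IgG2a Fc) where required, pre-incubated 30 min at room temperature. Terminal peripheral blood RBC-lysed, Fc-blocked, stained for CD45, CD3, CD11b, Ly6C, human CCR2 and 7AAD; percent depletion of CD11b+Ly6c+Hi cells determined by flow cytometry.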

[3] = test system: endogenous target monocytes in human PBMC; test: PBMC ex vivo monocyte depletion flow cytometry assay (Example 200); type: cell-based; settings: with anti-cotinine antibody (SEQ ID NO: 11/12), 18-24 hours, EC50 in molar, read-out: Ex Vivo Depletion Assay pEC50 (converted)
In short: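 Monocyte depletion is reported as pEC50, averaged or given individually across runs, and read by flow cytometry staining CD45, CD14 and CD4 with a viability dye. Compounds, diluted four-fold over 11 points from 1 mM DMSO stocks, were combined with 30 μg/mL Fc-enhanced anti-cotinine antibody and human PBMC, then incubated 18-24 h at 37° C.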

Row | Structure (SMILES) | pKd of Antibody for ARM Compound of Formula (I) [1] | % Depletion of CCR2 expressing cells [2] | EC50 [3]
1 | CC(C)N(C)[C@@H]1CC[C@H](N2CC[C@H](Nc3ncnc4ccc(C(F)(F)F)cc34)C2=O)[C@H](NC(=O)[C@H]2CC[C@@H](NC(=O)CNC(=O)CCOCCOCCNC(=O)[C@H]3CC(=O)N(C)[C@@H]3c3cccnc3)CC2)C1 [Example 83, (2S,3S)-N-(2-(2-(3-((2-(((1S,4s)-4-(((1R,2S,5R)-5-(Isopropyl(methyl)amino)-2-((S)-2-oxo-3-((6-(trifluoromethyl)quinazolin-4-yl)amino)pyrrolidin-1-yl)cyclohexyl)carbamoyl)cyclohexyl)amino)-2-oxoethyl)amino)-3-oxopropoxy)ethoxy)ethyl)-1-methyl-5-oxo-2-(pyridin-3-yl)pyrrolidine-3-carboxamide] | 9.302 | 67% | –
2 | CC(C)N(C)[C@@H]1CC[C@H](N2CC[C@H](Nc3ncnc4ccc(C(F)(F)F)cc34)C2=O)[C@H](NC(=O)[C@H]2CC[C@H](NC(=O)CCCO[C@H]3CC[C@H](OCCNC(=O)[C@H]4CC(=O)N(C5CC5)[C@@H]4c4cccnc4)CC3)CC2)C1 [Example 13, (2S,3S)-1-cyclopropyl-N-(2-(((1R,4S)-4-(4-(((1R,4R)-4-(((1R,2S,5R)-5-(isopropyl(methyl)amino)-2-((S)-2-oxo-3-((6-(trifluoromethyl)quinazolin-4-yl)amino)pyrrolidin-1-yl)cyclohexyl)carbamoyl)cyclohexyl)amino)-4-oxobutoxy)cyclohexyl)oxy)ethyl)-5-oxo-2-(pyridin-3-yl)pyrrolidine-3-carboxamide] | 10.511 | 96.07% | –
3 | CC(C)N(C)[C@@H]1CC[C@H](N2CC[C@H](Nc3ncnc4ccc(C(F)(F)F)cc34)C2=O)[C@H](NC(=O)[C@H]2CC[C@@H](NC(=O)CCOCCNC(=O)COCCNC(=O)[C@H]3CC(=O)N(C)[C@@H]3c3cccnc3)CC2)C1 [Example 98, (2S,3S)-N-(2-(2-((2-(3-(((1S,4s)-4-(((1R,2S,5R)-5-(Isopropyl(methyl)amino)-2-((S)-2-oxo-3-((6-(trifluoromethyl)quinazolin-4-yl)amino)pyrrolidin-1-yl)cyclohexyl)carbamoyl)cyclohexyl)amino)-3-oxopropoxy)ethyl)amino)-2-oxoethoxy)ethyl)-1-methyl-5-oxo-2-(pyridin-3-yl)pyrrolidine-3-carboxamide] | 9.0095 | 88% | 0.398 nM
4 | CC(C)N(C)[C@@H]1CC[C@H](N2CC[C@H](Nc3ncnc4ccc(C(F)(F)F)cc34)C2=O)[C@H](NC(=O)CCOCCNC(=O)CCCO[C@H]2CC[C@@H](OCCNC(=O)[C@H]3CC(=O)N(C)[C@@H]3c3cccnc3)CC2)C1 [Example 6, (2S,3S)-N-(2-(((1s,4R)-4-(4-((2-(3-(((1R,2S,5R)-5-(Isopropyl(methyl)amino)-2-((S)-2-oxo-3-((6-(trifluoromethyl)quinazolin-4-yl)amino)pyrrolidin-1-yl)cyclohexyl)amino)-3-oxopropoxy)ethyl)amino)-4-oxobutoxy)cyclohexyl)oxy)ethyl)-1-methyl-5-oxo-2-(pyridin-3-yl)pyrrolidine-3-carboxamide] | 9.282 | 82% | 0.2 nM
5 | CC(C)N(C)[C@@H]1CC[C@H](N2CC[C@H](Nc3ncnc4ccc(C(F)(F)F)cc34)C2=O)[C@H](NC(=O)[C@H]2CC[C@@H](NC(=O)CCCO[C@H]3CC[C@@H](OCCNC(=O)[C@H]4CC(=O)N(C)[C@@H]4c4cccnc4)CC3)CC2)C1 [Example 3, (2S,3S)-N-(2-(((1S,4R)-4-(4-(((1S,4S)-4-(((1R,2S,5R)-5-(Isopropyl(methyl)amino)-2-((S)-2-oxo-3-((6-(trifluoromethyl)quinazolin-4-yl)amino)pyrrolidin-1-yl)cyclohexyl)carbamoyl)cyclohexyl)amino)-4-oxobutoxy)cyclohexyl)oxy)ethyl)-1-methyl-5-oxo-2-(pyridin-3-yl)pyrrolidine-3-carboxamide] | 9.2795 | 87% | 0.501 nM
6 | CC(C)N(C)[C@@H]1CC[C@H](N2CC[C@H](Nc3ncnc4ccc(C(F)(F)F)cc34)C2=O)[C@H](NC(=O)CCOCCNC(=O)[C@H]2CC[C@H](NC(=O)COCCNC(=O)[C@H]3CC(=O)N(C)[C@@H]3c3cccnc3)CC2)C1 [Example 108, (2S,3S)-N-(2-(2-(((1R,4S)-4-((2-(3-(((1R,2S,5R)-5-(Isopropyl(methyl)amino)-2-((S)-2-oxo-3-((6-(trifluoromethyl)quinazolin-4-yl)amino)pyrrolidin-1-yl)cyclohexyl)amino)-3-oxopropoxy)ethyl)carbamoyl)cyclohexyl)amino)-2-oxoethoxy)ethyl)-1-methyl-5-oxo-2-(pyridin-3-yl)pyrrolidine-3-carboxamide] | 8.9855 | 93% | 0.398 nM
7 | CC(C)N(C)[C@@H]1CC[C@H](N2CC[C@H](Nc3ncnc4ccc(C(F)(F)F)cc34)C2=O)[C@H](NC(=O)CCNC2CCC3(CC2)CCN(CCCNC(=O)[C@H]2CC(=O)N(C)[C@@H]2c2cccnc2)CC3)C1 [Example 138, (2S,3S)-N-(3-(9-((3-(((1R,2S,5R)-5-(Isopropyl(methyl)amino)-2-((S)-2-oxo-3-((6-(trifluoromethyl)quinazolin-4-yl)amino)pyrrolidin-1-yl)cyclohexyl)amino)-3-oxopropyl)amino)-3-azaspiro[5.5]undecan-3-yl)propyl)-1-methyl-5-oxo-2-(pyridin-3-yl)pyrrolidine-3-carboxamide] | 9.0865 | 74.67% | 0.158 nM
8 | CC(C)N(C)[C@@H]1CC[C@H](N2CC[C@H](Nc3ncnc4ccc(C(F)(F)F)cc34)C2=O)[C@H](NC(=O)[C@H]2CC[C@H](NC(=O)CCCO[C@H]3CC[C@@H](OCCNC(=O)[C@H]4CC(=O)N(C)[C@@H]4c4cccnc4)CC3)CC2)C1 [Example 4, (2S,3S)-N-(2-(((1S,4R)-4-(4-(((1R,4R)-4-(((1R,2S,5R)-5-(Isopropyl(methyl)amino)-2-((S)-2-oxo-3-((6-(trifluoromethyl)quinazolin-4-yl)amino)pyrrolidin-1-yl)cyclohexyl)carbamoyl)cyclohexyl)amino)-4-oxobutoxy)cyclohexyl)oxy)ethyl)-1-methyl-5-oxo-2-(pyridin-3-yl)pyrrolidine-3-carboxamide] | 9.526 | 78.8% | 1 nM
9 | CC(C)N(C)[C@@H]1CC[C@H](N2CC[C@H](Nc3ncnc4ccc(C(F)(F)F)cc34)C2=O)[C@H](NC(=O)[C@H]2CC[C@H](CNC(=O)CCCC(=O)NCCCOCCCNC(=O)[C@H]3CC(=O)N(C)[C@@H]3c3cccnc3)CC2)C1 [Example 20, N1-(((1R,4r)-4-(((1R,2S,5R)-5-(Isopropyl(methyl)amino)-2-((S)-2-oxo-3-((6-(trifluoromethyl)quinazolin-4-yl)amino)pyrrolidin-1-yl)cyclohexyl)carbamoyl)cyclohexyl)methyl)-N5-(3-(3-((2S,3S)-1-methyl-5-oxo-2-(pyridin-3-yl)pyrrolidine-3-carboxamido)propoxy)propyl)glutaramide] | 8.8705 | 79% | 0.316 nM
10 | CC(C)N(C)[C@@H]1CC[C@H](N2CC[C@H](Nc3ncnc4ccc(C(F)(F)F)cc34)C2=O)[C@H](NC(=O)CCCC(=O)NCCCOCCCNC(=O)CCCNC(=O)[C@H]2CC(=O)N(C)[C@@H]2c2cccnc2)C1 [Example 173, N^1-((1R,2S,5R)-5-(Isopropyl(methyl)amino)-2-((S)-2-oxo-3-((6-(trifluoromethyl)quinazolin-4-yl)amino)pyrrolidin-1-yl)cyclohexyl)-N5-(3-(3-(4-((2S,3S)-1-methyl-5-oxo-2-(pyridin-3-yl)pyrrolidine-3-carboxamido)butanamido)propoxy)propyl)glutaramide] | 9.1415 | 91% | 0.794 nM
11 | CC(C)N(C)[C@@H]1CC[C@H](N2CC[C@H](Nc3ncnc4ccc(C(F)(F)F)cc34)C2=O)[C@H](NC(=O)[C@H]2CC[C@@H](NC(=O)CCCC(=O)NCCCC(=O)NCCCNC(=O)[C@H]3CC(=O)N(C)[C@@H]3c3cccnc3)CC2)C1 [Example 56, N^1-((1S,4s)-4-(((1R,2S,5R)-5-(Isopropyl(methyl)amino)-2-((S)-2-oxo-3-((6-(trifluoromethyl)quinazolin-4-yl)amino)pyrrolidin-1-yl)cyclohexyl)carbamoyl)cyclohexyl)-N^5-(4-((3-((2S,3S)-1-methyl-5-oxo-2-(pyridin-3-yl)pyrrolidine-3-carboxamido)propyl)amino)-4-oxobutyl)glutaramide] | 9.3185 | 97% | –
